This is an account of results in patent US20240091227A1, “Use Of 2-Phenyl-6-(1H-Imidazol-1-YL) Quinazoline For Treating Neurodegenerative Diseases, Preferably Alzheimer's Disease” (ROTTAPHARM BIOTECH S.R.L., priority 2019, published 2024).

One assay has as its system COX-2. In words: COX-2 gene expression in IL-1β-stimulated U373 MG astrocytoma cells (RT-PCR). It is filed as cell-based, human. The following applies: IL-1β 2 ng/ml. The method, then:
(§1) A model of astrocytes, the human glioblastoma astrocytoma cell line U373 MG (Uppsala), was used for these experiments. Adherent cells were grown in DMEM medium supplemented with 10% FBS at 37° C. with CO2. 72 hours after plating, cells were treated for 1 h with 2-phenyl-6-(1H-imidazol-1-yl)quinazoline (CR4056) (10 μM) prepared according to EP2066653 and then stimulated with the pro-inflammatory cytokine IL-1β (2 ng/mL) for further 6 and 24 h.
(§2) At the end of incubation period, total RNA was obtained and retro-transcribed using the High-Capacity cDNA Reverse Transcription Kit (Thermo Fisher Scientific). The levels of expression of COX-2, IL-1β, IL-6 and TNFα were evaluated by RT-PCR analysis, performed using the Applied Biosystems 7500 Fast Real-Time PCR System using specific TaqMan assays and, as an endogenous control, the 18S Pre-Developed TaqMan® Assay (Thermo Fisher Scientific). The data analysis, with normalisation on 18S amplified values, was according to Thermo Fisher Scientific specific instructions for gene expression relative quantification. All individual data were the result of at least three different measurements for each sample.
(§3) Percentage of gene expression inhibition observed in U373 cells stimulated with IL-1β 2 ng/ml and exposed to 10 μM CR4056 for the indicated time.

In the next assay the test system is IL-1β. In words: IL-1β gene expression in IL-1β-stimulated U373 MG astrocytoma cells (RT-PCR). It is filed as cell-based, human. The following applies: IL-1β 2 ng/ml. The method, then: as §1, §2, §3
For a further assay, the system named is IL-6. In words: IL-6 gene expression in IL-1β-stimulated U373 MG astrocytoma cells (RT-PCR). It is filed as cell-based, human. The following applies: IL-1β 2 ng/ml. The method, then:
as §1, §2, §3

The test system of a further assay is TNFα. In words: TNFα gene expression in IL-1β-stimulated U373 MG astrocytoma cells (RT-PCR). It is filed as cell-based, human. As to conditions: IL-1β 2 ng/ml. The method, then:
as §1, §2, §3

The subject of the next assay is PKCε. In words: PKCε translocation to the plasma membrane in cultured dorsal root ganglia neurons. It is filed as cell-based, rat. As to conditions: for IC50: rat DRG neurons. The method, then:
FIG. 1 reports the time-course (A) and washout (B) of CR4056 effect on PKCF translocation induced by bradykinin (BK 1 μM). In Panel A, open symbols represent the percentage of neurons positive for PKCF translocation following BK stimulation in absence of the drug. Filled symbols represent neurons pre-incubated with CR4056 ([…]) for different times before the stimulation for 30 seconds with BK+CR4056. The first filled symbol indicates the effect of CR4056 co-incubated for 30 seconds with BK, the second filled symbol indicates 10 seconds of pre-incubation of CR4056, and the last indicates 24 hours of pre-incubation of CR4056. […] In Panel B, BK-induced PKCF translocation was evaluated before (open symbol) and after pre-incubation of CR4056 ([…]) at different time intervals (from 10 minutes to 8 hours) (filled symbols). The first datapoint was obtained at the end of the 10 minute pre-incubation, when CR4056 was still present. The subsequent datapoints were obtained after extensive rinsing to ensure complete removal of the drug from extracellular solution (n=3).
Rat dorsal root ganglia (DRGs) were obtained from freshly isolated spines after carefully removing nerve trunks and connective tissue. Larger ganglia, chopped into 2-4 smaller pieces were then incubated for 1 hour at 37° C. in 0.125% collagenase (Worthington, Freehold, NJ) dissolved in Dulbecco's modified Eagle's medium (DMEM) containing 10% fetal bovine serum (FBS) plus 1% penicillin/streptomycin and 1% L-glutamine (Euroclone, Milan, Italy). After enzymatic digestion, ganglia were mechanically dissociated and neurons plated at a density such that neurons would cover about 30% of coverslip surface in a single layer, in petri dishes containing wells with a glass bottom coverslip (pre-coated with 10 μg/mL poly-L-lysine and 20 µg/ml laminin, Sigma-Aldrich, Milan, Italy). Cells were incubated for 2-3 days in DMEM as described above, plus 1.5 μg/ml cytosine 1-d-arabinofuranoside (ARA-C, Sigma-Aldrich) to slow down proliferation of non neuronal cells, and 100 ng/ml nerve growth factor (NGF, Sigma-Aldrich) to increase cell health and the and the expression of receptors which are linked to PKCF translocation upon stimulation. Activation of membrane receptors coupled to phospholipase C pathway leads to PKCF translocation from cytoplasm to the plasma membrane. In order to study PKCε behaviour a well established technique was employed (Vellani V, Neuroscience, 2006). […] CR4056 was pre-applied in the culture medium for 10 min or co-applied with the stimulus. After fixation, cells were permeabilized with 0.2% Triton X-100 (Sigma-Aldrich, Milan, Italy) and exposed overnight to a rabbit polyclonal antibody highly specific for PKCF. After extensive rinsing, PKCF was visualized with a secondary antibody (1:200 dilution Alexa Fluor 488 goat anti-rabbit, Thermo Fisher Scientific, Monza, Italy) applied for 2-4 hours at room temperature in the dark Cells showing PKCF translocation were detected with a confocal microscope (Leica SP2, Leica, Switzerland) by measuring fluorescence intensity along a line drawn through the cytoplasm and the membrane, thus avoiding the nucleus. Neurons in which fluorescence intensity at the plasma membrane throughout the cell was 1.5-fold or higher than the mean cytoplasmic intensity were considered positive.

Assay [1] relates to Mice treated with scopolamine. In words: Novel object recognition in scopolamine-induced memory impairment. It is filed as in vivo, mouse. The following applies: scopolamine 1 mg/kg ip, CR4056 6 and 20 mg/kg os. The method, then: FIG. 5 reports the results of Novel Object recognition test in the model of scopolamine-induced memory loss. Data presented as % of time spent on exploration of new and old object in testing phase. *p<0.05; **P<0.01; t student test (n=6).
The novel object recognition test was used to evaluate cognitive function based on the ability of mice to recognize various object proposed in the arena test. During the training phase a pair of identical objects were placed in the cage test. 24 hours after the first phase, during the testing phase one of the two object was replaced by a new different one. Time of exploration of each object was recorded in training and testing phase. The typical approach of mice was a similar exploration of the objects in training phase and a preference for the new object during the testing phase. The administration of substances that can worsen cognitive performance (i.e., scopolamine) caused the deletion of reminder of the old object and an equal exploration of 2 different objects. Scopolamine 1 mg/kg was administered ip 20 minutes before the training, whereas CR4056 6 and 20 mg/kg was administered os 40 minutes before the training.

[2] abbreviates: 10 μM, 10 minute application, then washout.

Structures are written as SMILES. Where two headings read alike, the source gives them in different places.

In the case of `c1ccc(-c2ncc3cc(-n4ccnc4)ccc3n2)cc1` [CR4056, 2-phenyl-6-(1H-imidazol-1-yl)quinazoline], the “Percentage of gene expression inhibition, COX-2” value in the assay on COX-2 (10 μM CR4056, 6 h) amounted to 45%; in the assay on COX-2 (10 μM CR4056, 24 h), 48%. The “Percentage of gene expression inhibition, IL-1β” value in the assay with IL-1β (10 μM CR4056, 6 h) came to 20%; in the assay on IL-1β (10 μM CR4056, 24 h) it was 29%. For the same molecule, the “Percentage of gene expression inhibition, IL-6” value in the assay with IL-6 (10 μM CR4056, 6 h) is “not yet modulated”; in the assay with IL-6 (10 μM CR4056, 24 h) it was 39%. In addition, the “Percentage of gene expression inhibition, TNF-α” value in the assay with TNFα (10 μM CR4056, 6 h) is “not yet modulated”; in the assay with TNFα (10 μM CR4056, 24 h), 52%. In the assay on PKCε (setting [2]), the “Time after washout during which the effect remained unchanged” value is “up to 1 hour”. The “Time after washout to complete reversal of the effect” value in the assay on PKCε (setting [2]) lay in the range of 3 to 4 h. Besides, in the assay with PKCε (10 μM, preincubation prolonged up to 24 hours or reduced to 10 seconds), the “Influence of preincubation time on inhibition of PKCF translocation” value is recorded as “did not change the extent of the effect”. In addition, the “Effect on BK-induced PKCF translocation, time-course (FIG. 1A)” value in the assay on PKCε (CR4056 10 M, co-incubation 30 seconds to 24 hours pre-incubation, BK 1 μM, t-test p<0.05, n=6) is reported as “highly significant at all times”. Further, the “Concentration at which the dose-response curves approached saturation” value in the assay with PKCε (CR4056 applied for 10 minutes) is “about 10 μM”. The 50% inhibitory concentration (IC50) (commonly the point on the concentration scale where inhibition reaches its midpoint) with PKCε (bradykinin stimulus, read-out: IC50, inhibition of PKCF translocation obtained with BK) amounted to 200 nM; in the assay on PKCε (prokineticin 2 stimulus, read-out: IC50, inhibition of PKCF translocation obtained with PK2), 170 nM. The “Time of exploration of the new object in testing phase, novel object recognition” value in assay [1] is given as “increased the time of exploration of the new object”.
